Assay: precipitation test for drug-containing mixture solutions
Type: physicochemical
Settings: mixture solution containing crosslinked temperature-responsive viscous solution (DDK Gel: poloxamer and crosslinked alginate), FIG. 7
From the text: In FIG. 7, DDK Gel means a gel composed of poloxamer and crosslinked alginate.

precipitate formation | Compound
formed a precipitate | CC(C)Cc1ccc(C(C)C(=O)O)cc1 (centres unmarked) [ibuprofen]
sodium alginate was precipitated | gentamicin

Source: patent US20200086049A1, “Kit For Treating or Relieving Pain at Incision Site Following Surgical Procedure” (GENEWEL CO., LTD., priority 2017, published 2020)
